From patent publication US20250369982A1, “METHODS OF DETECTING DDR1 PHOSPHORYLATION” (IncendiaTherapeutics, Inc., priority 2022, published 2025) come the findings set out here.

The data set deals with T47D cells. It counts as cell-based. The conditions noted are these: serum-starved T47D cells, 96 hours, compared to DMSO or IgG1 controls. An excerpt: To measure proliferation, Hoechst staining was used to stain nuclei and CellMask™ (Thermo Fisher Scientific) Deep Red was used to stain cell membranes. To measure cell death, Annexin V was used to stain phosphatidylserine on the cell surface, a marker of apoptosis, and Incucyte® Cytotox Green (Sartorius) to stain cells with compromised membrane integrity, a marker of cell death.

Turning to `CC(=O)O[C@H]1C(=O)[C@@]2(C)[C@H]([C@H](OC(=O)c3ccccc3)[C@]3(O)C[C@H](OC(=O)[C@H](O)[C@@H](NC(=O)c4ccccc4)c4ccccc4)C(C)=C1C3(C)C)[C@]1(OC(C)=O)CO[C@@H]1C[C@@H]2O` [paclitaxel], the “effect on cell death (Annexin V, Cytotox Green)” value is on record as “increased cell death” and the “effect on cell proliferation (nuclei count, total cell area)” value is given as “decreased proliferation”.
